Results reported in paper PMC5760651, “Peptidomimetic blockade of MYB in acute myeloid leukemia” (Nature Communications, 2018).
Non-standard residues stand in square brackets, D forms with d. Residues, ends and D or L forms follow the SMILES beside them.

Key:
[1] = tested on: primary patient-derived MLL-rearranged leukemia cells in NSG mice; assay: Patient-derived MLL-rearranged leukemia xenograft, treatment upon peripheral leukemia; assay type: in vivo, mouse; details: vs vehicle
Experimental: All mouse experiments were carried out in accordance with the Memorial Sloan Kettering Institutional Animal Care and Use Committee. For toxicity studies, female C57BL/6J mice (The Jackson Laboratory, Bar Harbor, Maine, USA) were treated with MYBMIM peptide suspended in PBS and administered daily through intraperitoneal injection at a dose of 25 mg/kg for a total of 7 days. Mice were sacrificed at the end of treatment for hematologic, biochemical and histologic analyses. For pharmacokinetic studies, C57BL/6J mice (The Jackson Laboratory, Bar Harbor, Maine, USA) were treated with a single IP injection of 25 mg/kg BIO-MYBMIM, and blood plasma was collected 30 min, 2 h, 4 h, and 24 h post-injection. Quantification of BIO-MYBMIM was measured using the Quant-Tag Biotin kit (Vector Labs, cat. # BDK-2000) following the manufacturer instructions. For patient-derived xenografts, two hundred thousand primary AML MLL-rearranged leukemia cells were suspended in […] of PBS and transplanted via tail vein injection into 8-week-old sublethally irradiated (200 rad) female NOD.Cg-Prkdc(scid)Il2rg(tm1Wjl)/SzJ mice (The Jackson Laboratory, Bar Harbor, Maine, USA). Recipient mice were maintained on antibiotic supplementation in chow (0.025% trimethoprim, 0.124% sulfamethoxazole, Sulfatrim). Three days after transplant, mice were randomly assigned to experimental treatment groups. […]

MOLM-13 cells = assay: RNA-seq transcriptome profiling; assay type: cell-based, human; details: MOLM13 cells, 20 µM, 6 h
Experimental: Reads were quality and adapter trimmed using “trim_galore” before aligning to human assembly hg19 with STAR v2.5 using the default parameters. Coverage and post-alignment quality were assessed using the Picard tool CollectRNASeqMetrics (http://broadinstitute.github.io/picard/). Read count tables were created using HTSeq v0.6.1. Normalization and expression dynamics were evaluated with DESeq2 using the default parameters.

[2] = tested on: primary patient-derived MLL-rearranged leukemia cells in NSG mice; assay: Patient-derived MLL-rearranged leukemia xenograft, treatment 3 days post transplantation, survival; assay type: in vivo, mouse
Experimental: All mouse experiments were carried out in accordance with the Memorial Sloan Kettering Institutional Animal Care and Use Committee. For toxicity studies, female C57BL/6J mice (The Jackson Laboratory, Bar Harbor, Maine, USA) were treated with MYBMIM peptide suspended in PBS and administered daily through intraperitoneal injection at a dose of 25 mg/kg for a total of 7 days. Mice were sacrificed at the end of treatment for hematologic, biochemical and histologic analyses. For pharmacokinetic studies, C57BL/6J mice (The Jackson Laboratory, Bar Harbor, Maine, USA) were treated with a single IP injection of 25 mg/kg BIO-MYBMIM, and blood plasma was collected 30 min, 2 h, 4 h, and 24 h post-injection. Quantification of BIO-MYBMIM was measured using the Quant-Tag Biotin kit (Vector Labs, cat. # BDK-2000) following the manufacturer instructions. For patient-derived xenografts, two hundred thousand primary AML MLL-rearranged leukemia cells were suspended in […] of PBS and transplanted via tail vein injection into 8-week-old sublethally irradiated (200 rad) female NOD.Cg-Prkdc(scid)Il2rg(tm1Wjl)/SzJ mice (The Jackson Laboratory, Bar Harbor, Maine, USA). […] Mice were treated from days 3–17 of this study for a total of 14 days and then monitored daily with clinical examination for survival analysis.

[3] = tested on: MOLM-13, MV-411, ML-2 and HL-60 cells; assay: Cell viability of AML cell lines; assay type: cell-based, human; details: 6 days, 20 μM TG1, TG2 or TG3, 10 and 20 μM MYBMIM, peptide replacement every 48 h, compared to untreated control
Experimental: Cells were resuspended and plated at a concentration of 2 × 10^5 cells in 200 μl in 96-well tissue culture plates. Media with peptides was replaced every 48 h. To assess the number of viable cells, cells were resuspended in PBS and 10 µl of suspension was mixed in a 1:1 ratio with 0.4% Trypan Blue (Thermo Fisher) and counted using a hemacytometer (Hausser Scientific, Horsham, PA, USA). To assess viability using an ATP-based assay, cell viability was assessed using the CellTiter-Glo Luminescent Viability assay, according to the manufacturer’s instructions (Promega). Luminescence was recorded using the Infinite M1000Pro plate reader using integration time of 250 ms (Tecan).

CC[C@@H](C)[C@@H](NC(=O)[C@@H](CCCCN)NC(=O)[C@@H](CCC(=O)O)NC(=O)[C@@H](CC(C)C)NC(=O)[C@@H](CCC(=O)O)NC(=O)[C@@H](CC(C)C)NC(=O)[C@@H](CC(C)C)NC(=O)[C@@H](CC(C)C)NC(=O)[C@@H](CCSC)NC(=O)[C@@H](CO)NC(=O)[C@H](NC(=O)[C@@H](CCC(=O)O)NC(=O)[C@@H](CC(N)=O)NC(=O)[C@@H](CCC(=O)O)NC(=O)[C@@H](CC(C)C)NC(=O)[C@@H](CCCCN)NC(C)=O)[C@H](C)O)C(=O)N[C@H](CCCNC(=N)N)C(=O)N[C@H](CCCCN)C(=O)NCC(=O)NCC(=O)N[C@H](CCCNC(=N)N)C(=O)N[C@H](CCCNC(=N)N)C(=O)N[C@H](CCCNC(=N)N)C(=O)N[C@H](CCC(N)=O)C(=O)N[C@H](CCCNC(=N)N)C(=O)N[C@H](CCCNC(=N)N)C(=O)N[C@H](CCCCN)C(=O)N[C@H](CCCCN)C(=O)N[C@H](CCCNC(=N)N)C(=O)NCC(=O)N[C@H](Cc1ccc(O)cc1)C(N)=O [MYBMIM] (Ac-[dK][dL][dE][dN][dE][dT][dS][dM][dL][dL][dL][dE][dL][dE][dK][dI][dR][dK]GG[dR][dR][dR][dQ][dR][dR][dK][dK][dR]G[dY]-NH2)
Leukemia burden by bone marrow analysis of human leukemia cells (hCD45) ([1]; NSG mice, 25 mg/kg IP twice daily, 21 days, 6 mice, p = 1.2e-4): significant reduction in leukemia burden | Levels of BCL2 in residual leukemia cells in the bone marrow ([1]; quantitative immunofluorescence, p = 0.3): minimal reduction | BCL2, MYC, GFI1, MTL5, IKZF1 gene expression (MOLM-13 cells): significant downregulation | Leukemia progression and survival ([2]; NSG mice, 25 mg/kg IP twice daily, 14 days from 3 days post-transplantation, n = 15 per group, p = 3.8e-3 log-rank): significantly delayed leukemia progression and extended survival | Disease latency in secondary transplant recipients ([2]; leukemia cells from moribund MYBMIM-treated mice vs vehicle, n = 10 per group, p < 0.0001 log-rank): significantly delayed disease latency | Growth of AML cell lines [3]: sustained, logarithmic reduction of growth
